Reference: PMC10675340, “Preparation, Radiolabeling with ^68Ga/^177Lu and Preclinical Evaluation of Novel Angiotensin Peptide Analog: A New Class of Peptides for Breast Cancer Targeting” (Pharmaceuticals, 2023)
Where two headings read alike, the source gives them in different places. Where a SMILES comes first, the peptide text is derived from it. [ ]: non-standard residue; d: D form. The star is where a group is joined. DOTA = O=C(O)CN1CCN(CC(=O)O)CCN(CC(=O)*)CCN(CC(=O)O)CC1; βAla = NCCC(=O)O

Experiment: In vivo tumor targeting and biodistribution in nude mice bearing MDA-MB-231 xenografts
Set-up: species or system mouse
Conditions: mouse, total radioactivity
Method: (with 43% wash away from the tumors over 2 h). The amount of radioactivity found for the ^68Ga-labeled AngII peptide analog in the tumors was always more than the radioactivity detected in the blood and muscle. A general pattern of better tumor-to-blood and tumor-to-muscle uptake ratios was noticed over time for ^68Ga-labeled AngII peptide.
In vivo, tumor uptake was conducted as reported previously. In summary, ~5 million MDA-MB-231 cells in 200 µL sterile PBS were implanted subcutaneously into each nude mouse. Once tumor growth became sufficient (~50–500 mg), tumor uptake and organ biodistribution were carried out after injecting the radiolabeled AngII peptide. The percent of the injected dose per gram in the tumors was determined by using a custom-designed Quattro Pro X9 spreadsheet (Corel Corporation, Austin, TX, USA).

For `CC[C@H](C)[C@H](NC(=O)[C@H](Cc1ccc(O)cc1)NC(=O)[C@@H](NC(=O)[C@H](CCCNC(=N)N)NC(=O)[C@H](CC(=O)O)NC(=O)CCNC(=O)[C@H](CCCCN)NC(=O)CN1CCN(CC(=O)O)CCN(CC(=O)O)CCN(CC(=O)O)CC1)C(C)C)C(=O)N[C@@H](Cc1c[nH]cn1)C(=O)N1CCC[C@H]1C(=O)N[C@@H](Cc1ccccc1)C(=O)N[C@@H](Cc1c[nH]c2ccccc12)C(=O)N[C@@H](CCCCN)C(=O)N[C@@H](Cc1ccc(O)cc1)C(N)=O` [^68Ga-DOTA-AngII peptide, metal not drawn] ({DOTA}-K[βAla]DRVYIHPFWKY-NH2), the tissue uptake at 0.75 h (blood, nude mice with MDA-MB-231 xenografts, 45 min p.i., mean ± SD, n = 4-6, read-out: Blood uptake) was 0.55 ± 0.12 %ID/g, the tissue uptake at 2 h (blood, nude mice with MDA-MB-231 xenografts, 2 h p.i., mean ± SD, n = 4-6, read-out: Blood uptake) was 0.22 ± 0.1 %ID/g and the tissue uptake at 0.75 h (heart, nude mice with MDA-MB-231 xenografts, 45 min p.i., mean ± SD, n = 4-6, read-out: Heart uptake) was 0.88 ± 0.3 %ID/g. For the same compound, the tissue uptake at 2 h (heart, nude mice with MDA-MB-231 xenografts, 2 h p.i., mean ± SD, n = 4-6, read-out: Heart uptake) was 0.65 ± 0.19 %ID/g, the tissue uptake at 0.75 h (intestines without contents, nude mice with MDA-MB-231 xenografts, 45 min p.i., mean ± SD, n = 4-6, read-out: Intestines uptake (portion without contents)) was 1.2 ± 0.35 %ID/g and the tissue uptake at 2 h (intestines without contents, nude mice with MDA-MB-231 xenografts, 2 h p.i., mean ± SD, n = 4-6, read-out: Intestines uptake (portion without contents)) was 1.05 ± 0.31 %ID/g. The tissue uptake at 0.75 h (kidneys, nude mice with MDA-MB-231 xenografts, 45 min p.i., mean ± SD, n = 4-6, read-out: Kidneys uptake) was 4.89 ± 1.97 %ID/g, the tissue uptake at 2 h (kidneys, nude mice with MDA-MB-231 xenografts, 2 h p.i., mean ± SD, n = 4-6, read-out: Kidneys uptake) was 3.97 ± 1.2 %ID/g and the tissue uptake at 0.75 h (liver, nude mice with MDA-MB-231 xenografts, 45 min p.i., mean ± SD, n = 4-6, read-out: Liver uptake) was 0.77 ± 0.22 %ID/g. The tissue uptake at 2 h (liver, nude mice with MDA-MB-231 xenografts, 2 h p.i., mean ± SD, n = 4-6, read-out: Liver uptake) was 0.65 ± 0.28 %ID/g, the tissue uptake at 0.75 h (lungs, nude mice with MDA-MB-231 xenografts, 45 min p.i., mean ± SD, n = 4-6, read-out: Lungs uptake) was 0.57 ± 0.16 %ID/g and the tissue uptake at 2 h (lungs, nude mice with MDA-MB-231 xenografts, 2 h p.i., mean ± SD, n = 4-6, read-out: Lungs uptake) was 0.39 ± 0.15 %ID/g. For the same compound, the tissue uptake at 0.75 h (muscle/bone, nude mice with MDA-MB-231 xenografts, 45 min p.i., mean ± SD, n = 4-6, read-out: Muscle/bone uptake) was 0.4 ± 0.17 %ID/g, the tissue uptake at 2 h (muscle/bone, nude mice with MDA-MB-231 xenografts, 2 h p.i., mean ± SD, n = 4-6, read-out: Muscle/bone uptake) was 0.19 ± 0.1 %ID/g and the tissue uptake at 0.75 h (pancreas, nude mice with MDA-MB-231 xenografts, 45 min p.i., mean ± SD, n = 4-6, read-out: Pancreas uptake) was 0.47 ± 0.11 %ID/g. For the same compound, the tissue uptake at 2 h (pancreas, nude mice with MDA-MB-231 xenografts, 2 h p.i., mean ± SD, n = 4-6, read-out: Pancreas uptake) was 0.29 ± 0.05 %ID/g, the tissue uptake at 0.75 h (spleen, nude mice with MDA-MB-231 xenografts, 45 min p.i., mean ± SD, n = 4-6, read-out: Spleen uptake) was 0.39 ± 0.08 %ID/g and the tissue uptake at 2 h (spleen, nude mice with MDA-MB-231 xenografts, 2 h p.i., mean ± SD, n = 4-6, read-out: Spleen uptake) was 0.24 ± 0.05 %ID/g. The tissue uptake at 0.75 h (stomach, nude mice with MDA-MB-231 xenografts, 45 min p.i., mean ± SD, n = 4-6, read-out: Stomach uptake) was 0.34 ± 0.1 %ID/g, the tissue uptake at 2 h (stomach, nude mice with MDA-MB-231 xenografts, 2 h p.i., mean ± SD, n = 4-6, read-out: Stomach uptake) was 0.3 ± 0.08 %ID/g and the tissue uptake at 0.75 h (tumor (MDA-MB-231 xenograft), MDA-MB-231 tumor in nude mice, 45 min p.i., mean ± SD, n = 4-6, read-out: Tumor uptake) was 2.18 ± 0.66 %ID/g. It also gave a tissue uptake at 2 h (tumor (MDA-MB-231 xenograft), MDA-MB-231 tumor in nude mice, 2 h p.i., unblocked, mean ± SD, n = 4-6, read-out: Tumor uptake) of 1.25 ± 0.37 %ID/g, a tissue to tissue ratio at 2 h (tumor / muscle, nude mice with MDA-MB-231 xenografts, 2 h p.i., read-out: Tumor/muscle uptake ratio) of 6.58 and a tissue to tissue ratio at 0.75 h (tumor/blood, nude mice with MDA-MB-231 xenografts, 45 min p.i., read-out: Tumor/blood uptake ratio) of 3.96. For the same compound, the tissue to tissue ratio at 2 h (tumor/blood, nude mice with MDA-MB-231 xenografts, 2 h p.i., read-out: Tumor/blood uptake ratio) was 5.68, the tissue to tissue ratio at 0.75 h (tumor/muscle, nude mice with MDA-MB-231 xenografts, 45 min p.i., read-out: Tumor/muscle uptake ratio) was 5.45 and the dose excreted at 0.75 h (urine with bladder contents, nude mice with MDA-MB-231 xenografts, 45 min p.i., mean ± SD, n = 4-6, read-out: Urine + Bladder (urinary excretion)) was 49.9 ± 10.9%. The dose excreted at 2 h (urine with bladder contents, nude mice with MDA-MB-231 xenografts, 2 h p.i., mean ± SD, n = 4-6, read-out: Urine + Bladder (urinary excretion)) was 55 ± 8.79%.
